In patent publication US8278301B2, “2-alkylbenzoxazole carboxamides as 5HT3 modulators” (Albany Molecular Research, Inc., priority 2006, dated 2012):

What was measured:
[1] = biological target: T1, 5-HT3 receptors (Mus musculus, UniProt P23979); assay: Bezold-Jarisch assay in vivo: inhibition of serotonin induced bradycardia; conditions: 30 mg/kg orally, 60 min before 5-HT 0.5 mg/kg IV, pentobarbital-anesthetized
T1 construct: from tissue; host or cells: whole animal, CD-1(Crl.) mice
T1 sequence (P23979 24-489): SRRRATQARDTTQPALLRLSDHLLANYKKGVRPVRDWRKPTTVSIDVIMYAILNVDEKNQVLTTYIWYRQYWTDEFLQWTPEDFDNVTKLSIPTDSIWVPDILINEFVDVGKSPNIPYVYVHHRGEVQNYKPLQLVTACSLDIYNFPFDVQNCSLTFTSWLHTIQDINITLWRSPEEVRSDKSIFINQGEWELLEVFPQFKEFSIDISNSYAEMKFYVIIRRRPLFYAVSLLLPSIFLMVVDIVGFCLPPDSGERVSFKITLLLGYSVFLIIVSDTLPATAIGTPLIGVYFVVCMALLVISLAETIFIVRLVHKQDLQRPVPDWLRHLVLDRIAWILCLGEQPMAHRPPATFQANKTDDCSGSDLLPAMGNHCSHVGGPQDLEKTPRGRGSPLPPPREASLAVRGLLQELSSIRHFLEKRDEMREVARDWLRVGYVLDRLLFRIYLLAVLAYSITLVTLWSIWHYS
Protocol: Bezold-Jarisch Assay in vivo. […] Arch. Int. Pharmacodyn. 277: 235-252, 1985]. Test substances and vehicle [2% Tween 80] were each administered orally (30 mg/kg) to a group of 5 male or female CD-1(Crl.) mice each weighing 24±2 g. A dosing volume of 10 mL/kg was used. Sixty minutes later, 5-HT (0.5 mg/kg IV)-induced bradycardia was recorded in pentobarbital (80 mg/kg IP, given 10 minutes before 5-HT)-anesthetized animals.

[2] = biological target: T2, human 5-HT3 receptor (Homo sapiens, UniProt P46098); assay: Compound affinity for the human 5-HT3 receptor (Assay B), SPA radioligand binding with [9-methyl-3H]BRL-43694; design: purchased Perkin Elmer
T2 sequence (P46098 24-478): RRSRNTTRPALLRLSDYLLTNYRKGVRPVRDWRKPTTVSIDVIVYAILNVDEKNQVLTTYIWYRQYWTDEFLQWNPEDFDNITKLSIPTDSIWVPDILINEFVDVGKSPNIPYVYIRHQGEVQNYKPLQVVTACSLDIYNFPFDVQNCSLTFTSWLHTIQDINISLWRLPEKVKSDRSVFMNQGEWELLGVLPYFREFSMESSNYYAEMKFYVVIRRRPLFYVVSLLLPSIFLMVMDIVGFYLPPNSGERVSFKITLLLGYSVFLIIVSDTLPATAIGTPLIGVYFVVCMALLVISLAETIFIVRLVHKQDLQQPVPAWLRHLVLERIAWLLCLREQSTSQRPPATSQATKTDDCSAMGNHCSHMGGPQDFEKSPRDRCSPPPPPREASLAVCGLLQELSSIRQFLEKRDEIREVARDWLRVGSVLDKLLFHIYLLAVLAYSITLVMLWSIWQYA
Protocol: Compound Affinity for the Human 5-HT3 Receptor (Assay B)
The relative affinity of the various compounds for the human 5-HT3 receptor was measured in a radioligand binding assay, using a scintillation proximity assay (SPA) format. Test compounds were dissolved to 10 mM in 100% DMSO, then serially diluted at 10× assay concentrations in 100% DMSO in 96-well polypropylene plates and further diluted to 4× assay concentrations with the assay buffer. Samples were incubated in 50 mM Tris-HCl, pH 7.5, 3 mM MgCl2, 1 mM EDTA and 10% DMSO with 10 nM [9-methyl-3H]BRL-43694 (Perkin Elmer), 3 μg of human 5-HT3 receptor membranes (Perkin Elmer) and 0.5 mg/mL SPA beads (WGA PVT, Amersham Biosciences) in a final volume of 0.2 mL. Binding reactions were set up in wells of PicoPlates-96 (Perkin Elmer) by adding consecutively 50 μL of each competing compound or buffer, SPA beads, the radioligand and 5-HT3 receptor membranes. After 60-min incubation at room temperature on a Nutator mixer, plates were centrifuged for 15 min at 1,500 rpm, followed by incubation in the dark for 30 min. Radioactivity was counted in the TopCount microplate counter (Perkin Elmer) for 5 min. Total binding control contained buffer only; nonspecific binding was determined in the presence of 30 μM MDL-72222. Specific binding was determined by subtracting nonspecific binding from total binding. All experiments were performed in duplicate using ten concentrations of a competing ligand, with ondansetron included as a control in every run. IC50 values were determined from specific binding data using XLfit4.1 curve fitting software from IDBS Ltd. Ki values were then calculated from the Cheng-Prusoff equation.
(§1) In the table below, the assay in which the data were obtained is shown (as A, B. C, or D) along with the data.

[3] = biological target: T3, mouse 5-HT3 receptor (Mus musculus, UniProt P23979); assay: Compound affinity for the mouse 5-HT3 receptor (Assay C), [3H]-GR65630 radioligand binding, Novoscreen; conditions: Assay C; single concentration 100 nM, in duplicate; [3H]-GR65630; read-out: Mouse % Inhibition @ 100 nM
T3 construct: host or cells: mouse neuroblastoma cells (N1E-155 as printed)
T3 sequence (P23979 24-489): T1 sequence (P23979 24-489)
Protocol: Compound Affinity for the Mouse 5-HT3Receptor (Assay C)
Compounds were tested by Novoscreen Biosciences Corporation, 7170 Standard Drive, Hanover, Md. in a radioligand binding assay using the mouse 5-HT3 receptor derived from mouse neuroblastoma cells and [^3H]-GR65630 (ligand). The non-specific binding determinant was MDL 72222. Compounds were tested at a single concentration of 100 nM in duplicate. Percent inhibition is reported. In order to evaluate the relative affinity of the various compounds for the 5-HT3 receptor, N1E-155 cell lines were developed to express the target protein. For binding, these cells were homogenized, centrifuged and washed with buffer (20 mM HEPES, 150 mM NaCl, pH 7.4) then suspended in 0.5 mL of buffer and [^3H]-GR65630 added at a concentration of 3.5×10^−10 M. An initial single concentration of 10^−7 M of the test compound was then added. Incubation was carried out at room temperature for 60 minutes at 25° C. then was terminated by rapid removal of the incubation medium. Radioactivity was assessed using liquid scintillation spectrophotometry after exposure to scintillation cocktail for at least three hours. […] Ki values were then calculated from the Cheng-Prusoff equation. In all of the above binding studies the non-specific determinant was MDL-72222 (1.0 μM).
as §1

| Structure (SMILES) | inhibition of 5-HT-induced bradycardia [1] | Ki [2] | inhibition at 0.1 µM [3] |
| --- | --- | --- | --- |
| O=C(N[C@@H]1CN2CCC1CC2)c1cccc2oc(C3CC3)nc12 [Example 2, (S)—N-(1-Azabicyclo[2.2.2]oct-3-yl)-2-cyclopropylbenzoxazole-4-carboxamide] | 80% | 11 nM | 87.7% |
| CN1[C@@H]2CCC[C@H]1C[C@@H](NC(=O)c1cccc3oc(C4CC4)nc13)C2 [Example 1, Endo-N-(9-Methyl-9-azabicyclo[3.3.1]non-3-yl)-2-cyclopropylbenzoxazole-4-carboxamide] | 56% | 4.1 nM | 96.1% |
